From US5527810A, “Decahydroisoquinoline compounds as excitatory amino acid receptor antagonists” (Eli Lilly and Company, priority 1994, dated 1996)

Assays:
focal cerebral ischemia [1] = conditions: cited from earlier work
focal cerebral ischemia [2] = conditions: cited from earlier work; remark: listed apart in the source
AMPA receptor [3] = test: AMPA receptor radioligand binding, displacement of [3H]AMPA (crude membranes of rat forebrain)
Procedure: (§1) The formula I compounds were tested for their ability to inhibit NMDA, AMPA, and kainic acid receptor binding to rat membranes in a radioligand binding assay using [^3 H]CGS19755, [^3 H]AMPA, and [^3 H]KA. For all radioligand binding assays, male Sprague-Dawley rats were used. Displacement of the specific binding [^3 H]CGS19755 (10 nM) to Triton-X-treated synaptosomal membranes of rat forebrain was used to determine NMDA receptor affinity. Non-specific binding was determined using 10 μM L-glutamate. Samples were incubated in an ice-bath for 30 minutes, and bound ligand was separated from the free ligand by rapid filtration through WHATMAN GF/B glass fiber filters. Murphy et al, British J. Pharmacol., 95, 932-938 (1988). Kainate binding was performed using washed synaptosomal membranes from the rat forebrain as described by Simon et al. Simon et al, J. Neurochem., 26, 141-147 (1976). Tritiated kainate (5 nM) was added to 50 mM Tris-HCl buffer (pH 7.4 at 4° C.) containing 200-300 μg/ml of tissue protein. Samples were incubated for 30 minutes in an ice-bath, then rapidly filtered using a Brandel cell harvester and WHATS GF/C filters. Filters were washed twice with 3 ml of cold buffer. Non-specific binding was determined using 100 μM non-labeled kainate. The binding of [^3 H]AMPA (5 nM) was conducted with crude membranes of rat forebrain in the presence of 100 mM KSCN as described by Nielson et al. Nielson et al, Eur. J. Med. Chem. Chem. Ther., 21, 433-437 (1986). Non-specific binding was determined with 10 μM non-labeled AHPA. The concentration of the formula I compound that inhibited 50% binding (IC50, mean ± standard error, n=3) as calculated by linear regression of displacement data transformed to the Hill equation as described by Bennett. Bennett, Neurotransmitter Receptor Binding, 57-90 (1978).

kainic acid receptor = test: Kainate receptor radioligand binding, displacement of [3H]KA (washed synaptosomal membranes from rat forebrain); conditions: [3H]kainate 5 nM, pH 7.4; mean ± standard error (n=3); 21.0 of compound 2 is a single experiment (footnote d)
Procedure: as §1, with “The binding of [^3 H]AMPA (5 nM) was conducted with crude membranes of rat forebrain in the presence of 100 mM KSCN as described by Nielson et al. Nielson et al, Eur. J. Med. Chem. Chem. Ther., 21, 433-437 (1986).” left out, “The concentration of the formula I compound that inhibited 50% binding (IC50, mean ± standard error, n=3) as calculated by linear regression of displacement data transformed to the Hill equation as described by Bennett. Bennett, Neurotransmitter Receptor Binding, 57-90 (1978).” left out

AMPA receptor [4] = test: Antagonism of cortical wedge depolarization induced by AMPA; format: cell-based, rat; conditions: for IC50: AMPA 40 μM, mean ± standard error (n=3)
Procedure: (§2) The depolarization of rat cortical wedges was used to test the selectivity and potency of the formula I compounds as AMPA and NTMDA antagonists using a technique similar to that described by Harrison and Simmonds. Harrison and Simmonds, Bri. J. Pharmacol., 84, 381-391 (1984). Generally, 4-ml aliquots of NMDA (40 μM), AMPA (40 μM), and kainate (10 μM) were superfused (2 ml/min.) on the grey matter at intervals of 15-20 minutes until stable responses were attained. The tissue was then exposed for 15 minutes to various concentrations of the formula I compounds before retesting the agonists. The IC50 values were calculated from linear regression of log dose-response curves, each point the mean of at least three observations on separate slices from more than one animal.

NMDA receptor [5] = test: Antagonism of cortical wedge depolarization induced by NMDA; format: cell-based, rat; conditions: for IC50: NMDA 40 μM, mean ± standard error (n=3)
Procedure: as §2

kainate (KA) receptor = test: Antagonism of cortical wedge depolarization induced by kainate; format: cell-based, rat; conditions: kainate 10 μM; mean ± standard error (n=3); 15 min
Procedure: as §2

NMDA receptor [6] = test: NMDA receptor radioligand binding, displacement of [3H]CGS19755 (rat forebrain synaptosomal membranes)
Procedure: as §1

global ischemia = conditions: in vivo; cited from earlier work
sound induced seizures = conditions: DBA/2 mice; cited from earlier work
[7] = tested on: global and focal ischemic damage; conditions: in vivo; cited from earlier work
formalin model = conditions: cited from earlier work
[8] = tested on: warm water tail withdrawal; conditions: rhesus monkeys; cited from earlier work
CNS ischemia = conditions: cited from earlier work
Huntington's Disease = conditions: in vivo; cited from earlier work
[9] = [3H]AMPA 5 nM, 100 mM KSCN, mean ± standard error (n=3), read-out: IC50 AMPA (receptor binding)
[10] = [3H]CGS19755 10 nM, mean ± standard error (n=3), 0.96 of compound 2 is a single experiment (footnote d), read-out: IC50 NMDA (receptor binding)

C[C@]12N[C@H](Cc3ccccc31)c1ccccc12 [dizocilpine]
protection in focal cerebral ischemia model in rats (focal cerebral ischemia [1]): provided protection
protection in focal cerebral ischemia model in cats (focal cerebral ischemia [2]): provided protection

O=C(O)[C@@H]1C[C@H]2C[C@@H](c3nn[nH]n3)CC[C@H]2CN1 (relative stereo) [Compound 1, (3SR, 4aRS, 6SR, 8aRS)-6-(1(2)H-Tetrazole-5-yl)decahydroisoquinoline-3-carboxylic Acid]
IC50 (AMPA receptor [3]; [9]): 12.8 ± 0.27 µM
IC50 KA (receptor binding) (kainic acid receptor): 31.84 ± 2.31 µM
IC50 (AMPA receptor [4]): 40.9 ± 5.2 µM
IC50 (NMDA receptor [5]): 7.5 ± 0.7 µM
IC50 KA (cortical wedge depolarization) (kainate (KA) receptor): > 100 µM
IC50 (NMDA receptor [6]; [10]): 1.56 ± 0.23 µM

CC1=NN=C(c2ccc(N)cc2)c2cc3c(cc2C1)OCO3 [GKYI 52466]
neuroprotection in rat global ischemia models (global ischemia): effective neuroprotective agent

C/C(=C\C(N)C(=O)O)CP(=O)(O)O (stereo not shown) [CGP 37849]
anticonvulsant against sound induced seizures (sound induced seizures): anticonvulsant

NS(=O)(=O)c1cccc2c1c([N+](=O)[O-])cc1nc(O)c(O)nc12 [NBQX, 2,3-dihydroxy-6-nitro-7-sulfamoylbenzo[f]quinoxaline]
prevention of global and focal ischemic damage [7]: effective in preventing global and focal ischemic damage

O=C(O)[C@H]1CN(C/C=C/P(=O)(O)O)CCN1 [D-(-)CPP-ene]
anticonvulsant against sound induced seizures (sound induced seizures): anticonvulsant
protection in focal cerebral ischemia model in cats (focal cerebral ischemia [2]): provided protection

NC(CCCP(=O)(O)O)C(=O)O (racemic) [DL-AP5]
analgesic in mouse formalin model (formalin model): analgesic

O=C(O)[C@@H]1C[C@H](CP(=O)(O)O)CCN1 [CGS 19755]
protection in focal cerebral ischemia model in rats (focal cerebral ischemia [1]): provided protection
analgesic in warm water tail withdrawal procedure [8]: analgesic

O=C(O)[C@@H]1C[C@H]2C[C@@H](c3nn[nH]n3)CC[C@H]2CN1 [Compound 2, (3S, 4aR, 6S, 8aR)-6-(1(2)H-Tetrazole-5-yl)decahydroisoquinoline-3-carboxylic Acid]
IC50 (AMPA receptor [3]; [9]): 5.72 ± 0.89 µM
IC50 (AMPA receptor [3]; text summary of Table I, read-out: IC50 for displacement of 3H-AMPA, summary statement): < 10 µM
IC50 KA (receptor binding) (kainic acid receptor): 21.0 µM
IC50 (AMPA receptor [4]): 13.2 ± 2.4 µM
AMPA receptor antagonism (AMPA receptor [4]; statement in words, Table II): AMPA and NMDA receptor antagonists
IC50 (NMDA receptor [5]): 4.1 ± 0.3 µM
NMDA receptor antagonism (NMDA receptor [5]; statement in words, Table II): AMPA and NMDA receptor antagonists
IC50 KA (cortical wedge depolarization) (kainate (KA) receptor): > 100 µM
IC50 (NMDA receptor [6]; [10]): 0.96 µM
IC50 (NMDA receptor [6]; text summary of Table I, read-out: IC50 for displacement of [3H]CGS19755, summary statement): < 10 µM

O=C(O)[C@H]1C[C@@H](Cc2nn[nH]n2)CCN1 (relative stereo) [LY233053]
protection in CNS ischemia model in rabbits (CNS ischemia): provided protection

O=C(O)[C@@H]1C[C@H]2C[C@@H](CP(=O)(O)O)CC[C@H]2CN1 (relative stereo) [LY274614]
neuroprotection in animal model of Huntington's Disease (Huntington's Disease): neuroprotective
